Patent US20240229043A1, “Methods and Compositions for Treating, Ameliorating, and/or Preventing Chronic Kidney Disease (CKD) and Complications thereof by Regulating DPEP1, CASP9, ACSS2 and/or FASN” (THE TRUSTEES OF THE UNIVERSITY OF PENNSYLVANIA, priority 2022, published 2024)
“Also recorded” adds a separate entry of the source.

How the values were obtained:
ACSS2 [1] = molecular target: T1, ACSS2 (Mus musculus, UniProt Q9QXG4); assay: UUO mouse model of kidney fibrosis with ACSS2i; type: in vivo, mice
T1 construct: from tissue; host or cells: living C57BL/6J mice; read-outs in kidney
T1 sequence (Q9QXG4 whole entry): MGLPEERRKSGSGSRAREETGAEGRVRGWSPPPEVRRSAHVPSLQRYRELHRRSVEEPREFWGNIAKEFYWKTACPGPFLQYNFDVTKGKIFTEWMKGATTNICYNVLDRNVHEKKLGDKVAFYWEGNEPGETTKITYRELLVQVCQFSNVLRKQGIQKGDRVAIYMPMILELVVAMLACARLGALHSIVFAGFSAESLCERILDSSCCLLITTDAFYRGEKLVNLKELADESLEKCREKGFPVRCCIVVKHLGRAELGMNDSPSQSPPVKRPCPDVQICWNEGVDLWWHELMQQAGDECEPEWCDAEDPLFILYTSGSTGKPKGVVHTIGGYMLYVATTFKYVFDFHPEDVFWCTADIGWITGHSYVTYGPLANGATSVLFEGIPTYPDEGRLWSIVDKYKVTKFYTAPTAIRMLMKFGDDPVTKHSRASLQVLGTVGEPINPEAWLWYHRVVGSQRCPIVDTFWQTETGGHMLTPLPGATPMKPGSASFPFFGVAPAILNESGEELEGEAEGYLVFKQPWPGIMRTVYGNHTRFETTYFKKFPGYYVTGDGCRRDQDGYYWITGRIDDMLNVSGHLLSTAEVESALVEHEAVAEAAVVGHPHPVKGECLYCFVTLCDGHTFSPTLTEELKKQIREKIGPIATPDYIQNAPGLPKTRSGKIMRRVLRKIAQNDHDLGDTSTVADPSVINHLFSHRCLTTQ
Method: (§1) Animal studies were approved by the Institutional Animal Care and Use Committee (IACUC) of the University of Pennsylvania. Mice were housed in pathogen free conditions with 12 h dark and light cycle in a temperature- and humidity-controlled environment (23±1). The mice were fed ad libitum with water and rodent standard chow diet. 6- to 7-week-old male and female C57BL/6J mice were used in the study. Mice were randomly assigned to experimental groups for all experiments including drug efficacy studies. To induce kidney injury, the present study employed two widely used kidney disease models including unilateral ureteral obstruction (UUO) and folic acid nephropathy (FAN). UUO surgery experiments were conducted on male and female mice. Briefly, UUO was performed by ligating the right kidney ureter, and the left kidney served as a sham operated kidney. Post-surgical procedures were followed according to the IACUC guidelines. For FAN models, 300 mM sodium bicarbonate (NaHCO3) solution was first made to solubilize folic acid (FA) and injected into male mice (FA 250 mg/kg i.p at single dose). Mice were sacrificed 7 days following injection or surgery. For the drug injection studies, mice were first injected one day before the UUO surgery.
(§2) Approximately 20-30 mg of kidney tissue was homogenized in SDS-blue loading buffer (#7722, CST) containing 42 mM DTT. Samples were loaded onto the SDS-PAGE gels and run at 100v for 1 h 40 min at RT in Tris-Glycine-SDS buffer. The proteins were transferred onto a PVDF membrane. Membranes were blocked with 3% non-fat dry milk powder in tris-buffer saline containing Tween-20 (TBST) for 30 min at RT. The blots were then incubated with primary antibody overnight at 4OC. After primary antibody incubation, the blots were washed three times with TBST, IRdye-conjugated secondary antibodies were probed for 1 h at RT. Finally, the blots were washed in TBST for three minutes each, 10 min at RT, and scanned at 600, 700, and 800 excitation wavelengths in Li-COR imager (Odysseyφ XF), Image Studio software. The images were quantified for relative abundance in Image J software.
(§3) The tissues were fixed in formalin, dehydrated by an ethanol gradient (30%, 50%, 75% and 95%) and then submitted to the histology Core in 100% ethanol. Once the tissue was sectioned, H&E and Sirius red staining was performed. Images were acquired in Olympus 5000 microscope with Cell Sense software. Percentage of relative fibrosis was quantified in image J.
(§4) For the inhibitor studies, littermate mice were randomly assigned to receive either FASNall or ACSS2i. A single dose of 1 mg/ml FASNall was given via i.p injection at 10 mg/kg body weight one day prior to the UUO surgery. Mice were sacrificed 3 days after UUO surgery, and their kidneys were harvested. ACSS2i was injected at 20 mg/kg body weight via i.p injection one day prior to UUO surgery, followed by daily injections for 5 days. Mice sacrificed on the 7th day after UUO surgery.

ACSS2 [2] = molecular target: ACSS2 (Homo sapiens, UniProt Q9NR19); conditions: cell and animal models; cited from earlier work
ACSS2 (Homo sapiens, UniProt Q9NR19), sequence (Q9NR19 whole entry, species assumed): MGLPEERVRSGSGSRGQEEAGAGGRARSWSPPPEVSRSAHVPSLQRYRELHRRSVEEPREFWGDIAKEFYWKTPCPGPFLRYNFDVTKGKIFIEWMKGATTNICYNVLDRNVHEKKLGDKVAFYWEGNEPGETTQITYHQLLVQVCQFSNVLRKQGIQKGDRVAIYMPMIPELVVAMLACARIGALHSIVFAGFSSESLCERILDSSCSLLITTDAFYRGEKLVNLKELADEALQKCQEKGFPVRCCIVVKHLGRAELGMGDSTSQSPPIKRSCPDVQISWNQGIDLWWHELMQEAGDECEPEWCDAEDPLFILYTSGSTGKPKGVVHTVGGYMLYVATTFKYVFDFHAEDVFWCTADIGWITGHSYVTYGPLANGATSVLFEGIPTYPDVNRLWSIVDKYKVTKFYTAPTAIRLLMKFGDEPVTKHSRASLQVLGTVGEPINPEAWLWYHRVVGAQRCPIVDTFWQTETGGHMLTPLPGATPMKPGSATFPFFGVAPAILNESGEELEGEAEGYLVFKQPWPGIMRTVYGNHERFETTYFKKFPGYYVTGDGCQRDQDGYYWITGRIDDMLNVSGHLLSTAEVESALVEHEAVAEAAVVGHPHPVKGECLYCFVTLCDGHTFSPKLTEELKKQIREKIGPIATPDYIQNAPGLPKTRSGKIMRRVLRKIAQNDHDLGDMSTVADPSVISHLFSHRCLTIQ

FASN [3] = molecular target: T2, FASN (Mus musculus, UniProt P19096); type: cell-based
T2 sequence (P19096 whole entry): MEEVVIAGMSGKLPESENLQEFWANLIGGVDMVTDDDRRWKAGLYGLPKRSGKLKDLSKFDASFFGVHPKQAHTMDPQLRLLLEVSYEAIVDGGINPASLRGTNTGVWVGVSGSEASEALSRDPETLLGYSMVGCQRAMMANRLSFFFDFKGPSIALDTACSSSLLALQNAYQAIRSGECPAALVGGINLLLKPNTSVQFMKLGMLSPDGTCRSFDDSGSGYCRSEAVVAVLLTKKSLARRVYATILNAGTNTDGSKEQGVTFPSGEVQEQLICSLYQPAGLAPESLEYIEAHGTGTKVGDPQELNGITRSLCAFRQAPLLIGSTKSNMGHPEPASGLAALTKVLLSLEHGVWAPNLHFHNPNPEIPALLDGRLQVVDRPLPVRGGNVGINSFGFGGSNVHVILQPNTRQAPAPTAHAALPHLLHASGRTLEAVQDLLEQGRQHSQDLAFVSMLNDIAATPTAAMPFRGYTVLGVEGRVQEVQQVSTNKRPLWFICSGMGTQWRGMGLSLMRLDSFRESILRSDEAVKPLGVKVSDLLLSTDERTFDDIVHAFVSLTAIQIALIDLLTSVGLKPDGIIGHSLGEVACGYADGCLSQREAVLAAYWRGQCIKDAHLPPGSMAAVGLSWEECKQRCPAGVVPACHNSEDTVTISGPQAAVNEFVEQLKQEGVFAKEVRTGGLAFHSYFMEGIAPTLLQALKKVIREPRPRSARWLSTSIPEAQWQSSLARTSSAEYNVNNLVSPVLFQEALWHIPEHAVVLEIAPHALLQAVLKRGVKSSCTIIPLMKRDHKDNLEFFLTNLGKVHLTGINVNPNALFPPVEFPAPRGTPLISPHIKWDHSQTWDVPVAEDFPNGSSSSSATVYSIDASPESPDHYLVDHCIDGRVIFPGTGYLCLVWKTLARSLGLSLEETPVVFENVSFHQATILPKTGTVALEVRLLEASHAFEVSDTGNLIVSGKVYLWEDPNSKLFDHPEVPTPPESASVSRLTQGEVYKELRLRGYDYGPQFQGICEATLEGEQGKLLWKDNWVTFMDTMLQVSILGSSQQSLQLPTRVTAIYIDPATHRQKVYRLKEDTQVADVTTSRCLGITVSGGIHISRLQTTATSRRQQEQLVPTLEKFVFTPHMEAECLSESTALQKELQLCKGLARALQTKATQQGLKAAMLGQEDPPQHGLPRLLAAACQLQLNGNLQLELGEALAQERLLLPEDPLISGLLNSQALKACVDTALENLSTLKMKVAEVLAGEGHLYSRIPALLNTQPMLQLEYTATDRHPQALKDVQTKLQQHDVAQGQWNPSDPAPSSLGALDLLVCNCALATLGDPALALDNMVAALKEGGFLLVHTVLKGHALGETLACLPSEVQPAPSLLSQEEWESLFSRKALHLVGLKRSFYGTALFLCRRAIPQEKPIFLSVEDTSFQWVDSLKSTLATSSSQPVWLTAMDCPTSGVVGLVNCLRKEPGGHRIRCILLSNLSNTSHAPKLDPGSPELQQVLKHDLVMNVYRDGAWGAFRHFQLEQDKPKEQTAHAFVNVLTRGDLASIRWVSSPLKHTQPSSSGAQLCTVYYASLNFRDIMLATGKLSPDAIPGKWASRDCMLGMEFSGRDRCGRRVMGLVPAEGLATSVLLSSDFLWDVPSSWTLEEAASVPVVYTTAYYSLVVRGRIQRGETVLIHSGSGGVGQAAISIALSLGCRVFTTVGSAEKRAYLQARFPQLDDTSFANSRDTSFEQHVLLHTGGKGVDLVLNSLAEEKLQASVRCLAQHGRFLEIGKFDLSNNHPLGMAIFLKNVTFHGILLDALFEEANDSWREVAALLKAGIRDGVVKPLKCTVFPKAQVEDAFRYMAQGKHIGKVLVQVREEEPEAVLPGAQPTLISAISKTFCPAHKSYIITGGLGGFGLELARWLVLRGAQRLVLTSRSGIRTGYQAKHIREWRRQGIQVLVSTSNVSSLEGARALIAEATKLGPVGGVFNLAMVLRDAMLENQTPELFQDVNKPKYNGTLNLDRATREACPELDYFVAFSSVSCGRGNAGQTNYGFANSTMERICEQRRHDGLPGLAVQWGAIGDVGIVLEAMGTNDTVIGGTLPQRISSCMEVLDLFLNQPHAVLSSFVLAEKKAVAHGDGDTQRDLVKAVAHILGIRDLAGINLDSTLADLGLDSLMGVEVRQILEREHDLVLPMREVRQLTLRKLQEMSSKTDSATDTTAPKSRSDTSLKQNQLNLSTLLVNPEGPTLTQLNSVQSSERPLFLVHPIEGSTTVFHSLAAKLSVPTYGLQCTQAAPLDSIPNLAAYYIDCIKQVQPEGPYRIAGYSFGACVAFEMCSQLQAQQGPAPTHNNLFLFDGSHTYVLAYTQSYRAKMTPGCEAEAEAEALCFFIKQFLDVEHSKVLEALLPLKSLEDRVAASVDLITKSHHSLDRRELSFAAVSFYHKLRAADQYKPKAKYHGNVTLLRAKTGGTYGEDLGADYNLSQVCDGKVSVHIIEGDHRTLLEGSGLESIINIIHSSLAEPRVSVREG
Method: The NADPH/NADP+ ratio was calculated according to the manufacturer protocol (#G1009, Promega). Briefly, an equal number of cells were cultured in a 96-well format and starved overnight for TGF-beta 1 treatments. Next, the cells were lysed in 20% DTAB containing Basic solution for 10 min at RT. Samples were processed according to the protocol for measuring NADPH and NADP+ from the same well simultaneously. The absolute and relative NADPH/NADP+ values were calculated according to the manufacturer's formula.
Reduced and oxidized glutathione levels were measured according to the Glutathione Colorimetric Detection Kit (#EIAGSHC, Thermo Scientific) from the same well after completion of all treatments.
(§5) Primary cells were cultured on microscopic cover glass overnight until they reached 70% confluency. Cells were incubated in a 5 μM MitoSox (#M36008, Thermo Scientific) solution for 10 min in incubator and processed for imaging and quantifications. Cells were also incubated in 10 μM JC-1 (#T3168, Thermo Scientific) for 10 min and then proceeded with imaging and quantifications.

FASN [4] = molecular target: T2, FASN
FASN [5] = molecular target: T2, FASN; type: in vivo
Method: as §1, §2, §3, §4

primary TECs = assay: Cisplatin-treated primary kidney tubule cells from wild-type and Chmp1a+/- mice; type: cell-based
Method: For primary culture of renal tubule cells, kidneys were collected from 2- to 4-week-old male mice. Cells were isolated by 2 mg/ml collagenase I (Gibco #17018-029) digestion for 30 min at 37° C. with gentle stirring and filtered through a 100-μm mesh. The cell suspension was cultured in RPMI 1640 (Corning #10-040-CM) supplement with 10% FBS (Atlanta Biologicals #S11950), 20 ng/ml EGF (Peprotech #AF-100-15), 1×ITS (Gibco #51500-056), and 1% penicillin-streptomycin (Corning #30-002-CI) at 5% CO2 and 37° C.
Primary cultured renal tubule cells or NRK52E cells were incubated with 1 μM transferrin (Thermo Fisher #T13342) for 4 h, or 5 μM mitoSOX (ThermoFisher #M36008) for 10 min, or 2 μM BODIPY™ 581/591 C11 (Thermo Fisher #D3861) for 0.5 h, or 20 ng/ml dextran conjugated to 488 (Thermo Fisher #D22910) for 2 h, at 5% CO2 and 37° C., respectively. After washing with PBS, cells were imaged directly under the confocal or regular fluorescence microscope.
Mouse primary tubular epithelial cells from wild-type, mutant mice or NRK52E cells were plated in 96-well plate. Transfection of NRK52E cells with siRNA was carried out as described above. […] Cells were harvested and stained with trypan blue (Thermo Fisher #T10282) to visualize dead cells. Cell counts were analyzed in Countess Auto Counter (Invitrogen, C10227). LDH release was quantified using CytoTox 96 Non-Radioactive Cytotoxicity Assay (Promega #G1780). Medium was collected in triplicates, spun down, and incubated in a 96-well plate with the CytoTox reagent for 20-30 min. After adding the stop solution, the absorbance signal was measured at 490 nm in a plate reader. The ratio between dead cell and live cell was calculated through the measurement using MultiTox-Fluor Multiplex Cytotoxicity Assay (Promega #9201). Cells were incubated in assay buffer containing live cell substrate GF-AFC and dead cell substrate bis-AAF-R110 for 30 min at 37° C. The plate fluorescence was measured using a plate reader as following: viability: excitation ˜400 nm; emission ˜505 nm. cytotoxicity: excitation ˜485 nm; emission ˜520 nm.

mitochondrial ROS = assay: MitoTempo in TGF-beta 1 treated primary tubule cells; type: cell-based, mice
Method: as §5
Cells cultured as above and pretreated with 100 μM MitoTempo (#SML0737, Sigma) for 2 h, followed by TGF-beta 1 treatments while MitoTempo was still present.

In the case of `COCCNC(=O)Nc1ccc2nc(-c3cccs3)c(-c3cccs3)nc2c1` [ACSS2i], the “fibrosis and tubule atrophy (H&E, Sirius red quantification)” value (ACSS2 [1]; UUO) is reported as “markedly lower”, the “Gene and protein expression of fibrosis markers (Acta2, Col1a1, Col3a, and Fn1)” value (ACSS2 [1]; UUO kidney injury) is reported as “reduced fibrosis; also recorded: protective effect” and the “gene expression of NLRP3, IL-1B, IL18, caspase1 and Gsdmd” value (ACSS2 [1]; UUO kidneys) is reported as “lower”. The “lipid accumulation (Fasn, Plin2 expression, TG accumulation)” value (ACSS2 [1]; UUO kidneys) was “inhibited”, the “Protein levels of NLRP3, caspase1, cleaved caspase1 (p20), F-GSDMD, and N-GSDMD” value (ACSS2 [1]; UUO kidneys vs vehicle treated) was “lower” and the kidney disease development (ACSS2 [1]; mice) was “protect mice from kidney disease development”. For the same compound, the “collagen fibers staining (Sirius Red)” value (ACSS2 [1]; vs vehicle alone) was “reduced”, the “UUO induced kidney injury (H&E analysis)” value (ACSS2 [1]; vs vehicle injected mice) was “prevented” and the “obesity-induced multiple myeloma growth” value (ACSS2 [2]) was “reduce”.

With `Cc1sc2ncnc(NC3CCN(Cc4ccccc4)C3)c2c1C` (stereo not drawn) [FASNall] the “less negative mitochondrial membrane potential (monomeric JC-1 accumulation)” value (FASN [3]; TGF-beta 1 treated WT cells) was “attenuated this effect”, the “GSH levels and relative GSH/GSSH ratio” value (FASN [3]; TGF-beta 1 treated cells) was “preserved” and the “NADPH/NADP+ ratio” value (FASN [3]; TGF-beta 1 treated tubule cells) was “preserved”. For the same compound, the “cell death (cell viability)” value (FASN [4]) was “did not increase cell death”, the “Protein levels of FN1 and α-SMA” value (FASN [5]; UUO kidneys) was “suppressed; also recorded: lower” and the “TGs (TAGs) levels in kidney” value (FASN [5]; UUO kidneys) was “prevented; also recorded: lower”. For the same compound, the “fibrosis markers Acta2, Col1a1, Col3a, and Fn1 gene expression” value (FASN [5]; UUO kidneys) was “lower”, the “gene expression of NLRP3, IL-1B, IL18, caspase1 and Gsdmd” value (FASN [5]; UUO kidneys) was “lower” and the “lipid accumulation (Oil red O staining)” value (FASN [5]; UUO kidneys) was “attenuated; also recorded: lower”. The “tissue scarring (Sirius red staining)” value (FASN [5]; UUO kidneys vs vehicle) was “less”, the “tubule atrophy and fibrosis (histological analysis)” value (FASN [5]; UUO kidneys vs vehicle) was “lower” and the “Protein levels of NLRP3, caspase1, cleaved caspase1 (p20), F-GSDMD, and N-GSDMD” value (FASN [5]; UUO kidneys vs vehicle treated) was “lower”. For the same compound, the “Fasn and Plin2 expression” value (FASN [5]; UUO kidneys, single dose 10 mg/kg i.p., 10 mg/kg) was “significantly prevented; also recorded: ameliorated” and the “kidney injury and fibrosis / kidney disease development” value (FASN [5]; mice) was “prevented kidney injury and fibrosis development; also recorded: protect mice from kidney disease development”.

In the case of `CC1(C)CC(NC(=O)C[P+](c2ccccc2)(c2ccccc2)c2ccccc2)CC(C)(C)N1[O]` [Mito-TEMPO], the “LDH release induced by cisplatin” value (primary TECs; Chmp1a+/- primary TECs) is reported as “markedly lowered”, the “lipid peroxidation (C11 BODIPY 581/591) induced by cisplatin” value (primary TECs; primary TECs from wild-type or Chmp1a+/- mice) is reported as “markedly lowered” and the “inflammasome activation (IL-1B, IL18, and caspase1 increase)” value (mitochondrial ROS; following TGF-beta 1 treatment, MitoTempo 100 μM) is reported as “efficiently lowered”. For the same compound, the “TGF-beta 1 induced expression of fibrosis markers / fibrotic genes” value (mitochondrial ROS; primary TECs) was “lowered; also recorded: diminished”.
